Data on 20 compounds can be found in patent publication US20030044399A1, “Method of treatment” (SmithKline Beecham Corporation, priority 1998, published 2003).

One assay deals with Falcipain 2 (Plasmodium falciparum, UniProt Q8I6U4). As to the kind of experiment: Cysteine protease inhibition, progress curve method, falcipain. The following applies: 10 uM Cbz-Leu-Arg-AMC, 100 mM Na acetate pH 5.5, 5 mM cysteine. In kind it is biochemical. The protocol: Standard assay conditions for the determination of kinetic constants used 10 uM fluorogenic peptide substrate, Cbz-Phe-Arg-AMC for the cysteine proteases from Leishmania spp and Schistosoma Mansoni, Cbz-Leu-Arg-AMC for the cysteine proteases from Plasmodium falciparum and Trypanosoma brucei rhodesiensi, and Ac-Lys-Glu-Lys-Leu-Arg-AMC (4 uM final substrate concentration) for the cysteine protease from Trypoanosoma cruzi, and were determined in 100 mM Na acetate at pH 5.5 containing 5 mM cysteine. Stock substrate solutions were prepared at concentrations of […] in DMSO with 10 uM (4 uM for Ac-Lys-Glu-Lys-Leu-Arg-AMC) final substrate concentration in the assays. The final DMSO concentration was 2% and the final volume was 100 uL. All assays were conducted at ambient temperature. Product progress curves were generated over 20 to 30 minutes following formation of AMC product.
Potential inhibitors were evaluated using the progress curve method. Assays were carried out in the presence of variable concentrations of test compound. Reactions were initiated by addition of enzyme to buffered solutions of inhibitor and substrate. Data analysis was conducted according to one of two procedures depending on the appearance of the progress curves in the presence of inhibitors. For those compounds whose progress curves were linear, apparent inhibition constants (Ki,app) were calculated according to equation 1 (Brandt et al., Biochemitsry, 1989, 28, 140):
v=VmA/[Ka(1+I/Ki,app)+A] (1)
Where v is the velocity of the reaction with maximal velocity Vm, A is the concentration of substrate with Michaelis constant of Ka, and I is the concentration of inhibitor.
[AMC]=vsst+(v0−vss)[1−exp (−kobst)]/kobs (2)
Where [AMC] is the concentration of product formed over time t, v0 is the initial reaction velocity and vss is the final steady state rate. Values for kobs were then analyzed as a linear function of inhibitor concentration to generate an apparent second order rate constant (kobs/inhibitor concentration or kobs/[I]) describing the time-dependent inhibition. A complete discussion of this kinetic treatment has been fully described (Morrison et al., Adv. Enzymol. Relat. Areas Mol. Biol., 1988, 61, 201).
Exemplary inhibition data for the compounds used in the present method collected in accordance with the above-described procedure are listed in Table I.

Another assay addresses Rhodazain (Trypanosoma brucei rhodesiense, UniProt Q95PM0). As to the kind of experiment: Cysteine protease inhibition, progress curve method, rhodazain. Type of assay: biochemical, Trypanosoma brucei rhodesiensi. The following applies: 10 uM Cbz-Leu-Arg-AMC, 100 mM Na acetate pH 5.5, 5 mM cysteine.
The next assay deals with Cruzain (Trypanosoma cruzi, UniProt P25779). As to the kind of experiment: Cysteine protease inhibition, progress curve method, cruzain. Type of assay: biochemical. To be noted: 4 uM Ac-Lys-Glu-Lys-Leu-Arg-AMC, 100 mM Na acetate pH 5.5, 5 mM cysteine; read-out: Cruzain Ki. In outline:
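Buffer was 100 mM sodium acetate pH 5.5 with 5 mM cysteine and 2% DMSO, at ambient temperature; reactions started with enzyme, and AMC formation was followed for 20–30 min. Substrates: Leishmania and Schistosoma, 10 uM Cbz-Phe-Arg-AMC; falcipain, 10 uM Cbz-Leu-Arg-AMC; cruzain, 4 uM Ac-Lys-Glu-Lys-Leu-Arg-AMC. Linear curves gave Ki,app; curved ones gave kobs/[I].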

Structures are written as SMILES. Where two headings read alike, the source gives them in different places.

Rhodazain, sequence (Q95PM0 entry or part of it): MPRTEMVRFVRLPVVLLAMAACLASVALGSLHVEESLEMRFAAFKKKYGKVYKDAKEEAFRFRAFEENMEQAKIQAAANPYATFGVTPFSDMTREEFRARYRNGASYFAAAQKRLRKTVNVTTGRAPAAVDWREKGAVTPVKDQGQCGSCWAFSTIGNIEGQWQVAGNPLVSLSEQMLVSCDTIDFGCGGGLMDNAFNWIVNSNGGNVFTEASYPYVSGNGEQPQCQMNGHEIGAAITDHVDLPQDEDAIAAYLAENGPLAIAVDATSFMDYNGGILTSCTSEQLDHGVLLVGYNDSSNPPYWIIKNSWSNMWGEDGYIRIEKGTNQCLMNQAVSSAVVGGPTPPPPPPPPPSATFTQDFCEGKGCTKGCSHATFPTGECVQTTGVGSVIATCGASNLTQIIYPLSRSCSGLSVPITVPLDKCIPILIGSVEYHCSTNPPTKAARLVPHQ
Cruzain, sequence (P25779 123-337): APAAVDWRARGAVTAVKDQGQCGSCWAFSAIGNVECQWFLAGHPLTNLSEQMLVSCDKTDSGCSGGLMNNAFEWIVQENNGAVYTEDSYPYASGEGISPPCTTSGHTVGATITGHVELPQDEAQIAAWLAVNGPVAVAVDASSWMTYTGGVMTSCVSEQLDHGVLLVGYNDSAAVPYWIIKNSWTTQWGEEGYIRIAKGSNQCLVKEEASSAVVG
Falcipain 2, sequence (Q8I6U4 244-484): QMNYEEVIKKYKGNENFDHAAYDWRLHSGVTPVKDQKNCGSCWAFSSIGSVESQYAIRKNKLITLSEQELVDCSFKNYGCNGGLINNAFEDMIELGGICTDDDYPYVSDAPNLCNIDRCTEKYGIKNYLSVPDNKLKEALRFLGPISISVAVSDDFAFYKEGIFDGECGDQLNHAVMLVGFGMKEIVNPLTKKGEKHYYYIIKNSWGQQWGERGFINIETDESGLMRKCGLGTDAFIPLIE

Turning to `COc1ccc2oc(C(=O)N[C@H](CC(C)C)C(=O)N[C@@H]3CCCN(S(=O)(=O)c4ccccn4)CC3=O)cc2c1` (single isomer, unassigned) [Example 69], the Ki – broadly, a measure of affinity in units of concentration, obtained from inhibition or displacement – at Falcipain 2 is 5.6 nM; at Rhodazain (Rhodazain Ki (nM)), 2.2 nM.

`CC(C)C[C@@H](NC(=O)c1cc2cc(OCCN3CCCCC3)ccc2o1)C(=O)N[C@@H]1CCCN(S(=O)(=O)c2ccccc2)CC1=O` (stereo in doubt) [Example 9, 5-(2-Piperidin-1-yl-ethoxy)-benzofuran-2-carboxylic acid [(S)-1-(1-benzenesulfonyl-3-oxo-azepan-4-ylcarbamoyl)-3-methyl-butyl]amide] had an inhibition constant (Ki) at Falcipain 2 of 65 nM.

Take `CC(C)C[C@@H](NC(=O)c1ccc([N+](=O)[O-])o1)C(=O)N[C@@H]1CCCN(S(=O)(=O)c2ccccn2)CC1=O` (stereo in doubt) [Example 35, 5-Nitro-furan-2-carboxylic acid {(S)-3-methyl-1-[3-oxo-1-(pyridine-2-sulfonyl)-azepan-4-ylcarbamoyl]-butyl}amide]: the Ki on Falcipain 2 worked out at 96 nM.

Consider `CC(C)C[C@@H](NC(=O)c1ccc2cc[nH]c2c1)C(=O)N[C@@H]1CCCN(S(=O)(=O)c2ccccn2)CC1=O` (stereo in doubt) [Example 58, 1H-Indole-6-carboxylic acid {(S)-3-methyl-1-[3-oxo-1-(pyridine-2-sulfonyl)-azepan-4-ylcarbamoyl]-butyl}amide], for which the Ki at Falcipain 2 turned out to be 7.1 nM; on Rhodazain (Rhodazain Ki (nM)), 3.1 nM.

In the case of `COc1ccc(S(=O)(=O)N2CCCC(NC(=O)C(CC(C)C)NC(=O)c3ccc4c(c3)OCO4)C(=O)C2)cc1` (stereo in doubt) [Example 73, Benzo[1,3]dioxole-5-carboxylic acid {(S)-1-[1-(4-methoxy-benzenesulfonyl)-3-oxo-azepan-4-ylcarbamoyl]-3-methyl-butyl}-amide], the Ki at Falcipain 2 amounted to 5.2 nM.

`CC(C)C[C@@H](NC(=O)c1cc2cc(OCCN3CCOCC3)ccc2o1)C(=O)NC1CCCN(C(=O)Cc2cccc(-c3ccccn3)c2)CC1=O` (stereo partly drawn) [Example 3, 5-(2-morpholino-4-yl-ethoxy)-benzofuran-2-carboxylic acid ((S)-3-methyl-1-{3-oxo-1-[2-(3-pyridin-2-yl-phenyl)acetyl]-azepan-4-ylcarbamoyl}-butyl)amide]: the Ki at Falcipain 2 worked out at 3 nM.

In turn, `CC(C)C[C@@H](NC(=O)c1cc2cc(OCCN3CCOCC3)ccc2o1)C(=O)N[C@@H]1CCCN(C(=O)Nc2ccccc2)CC1=O` [Example 5, 4-((S)-4-Methyl-2-{[5-(2-morpholino-4-yl-ethoxy)-benzofuran-2-carbonyl]amino}-pentanoylamino)-3-oxo-azepane-1-carboxylic acid phenylamide] registered a Ki at Falcipain 2 of 34 nM.

At Falcipain 2, `CC(C)C[C@@H](NC(=O)c1cc2cc(OCCN3CCNCC3)ccc2o1)C(=O)N[C@@H]1CCCN(S(=O)(=O)c2ccccn2)CC1=O` [Example 23, 5-(2-Piperizin-1-yl-ethoxy)-benzofuran-2-carboxylic acid {(S)-3-methyl-1-[3-oxo-1-(pyridine-2-sulfonyl)-azepan-4-ylcarbamoyl]-3-butyl}-amide] yielded an inhibition constant Ki of 14 nM.

For the compound `CC(C)C[C@@H](NC(=O)c1cc2ccccc2s1)C(=O)N[C@@H]1CCCN(S(=O)(=O)c2cccc[n+]2[O-])CC1=O` [Example 46, Benzo[b]thiophene-2-carboxylic acid {(S)-3-methyl-1-[3-oxo-1-(1-oxy-pyridine-2-sulfonyl)-azepan-4-ylcarbamoyl]-butyl}amide], the inhibition constant Ki at Cruzain turned out to be 6.1 nM; at Falcipain 2 it was 5.3 nM.

Consider `CC(C)C[C@H](NC(=O)c1ccc(-c2cccc(C(F)(F)F)c2)o1)C(=O)N[C@@H]1CCCN(S(=O)(=O)c2ccccn2)CC1=O` [Example 66, 5-(3-Trifluoromethyl-phenyl)-furan-2-carboxylic acid {(S)-3-methyl-1-[3-oxo-1-(pyridine-2-sulfonyl)-azepan-4-ylcarbamoyl]-butyl}amide], for which the inhibition constant (Ki) at Falcipain 2 was 10 nM; on Rhodazain (Rhodazain Ki (nM)), 5.1 nM.

Take `COc1ccc(S(=O)(=O)N2CCC[C@@H](NC(=O)[C@H](CC(C)C)NC(=O)c3ccc(OC)c(OC)c3)C(=O)C2)cc1` [Example 107, 3,4-Dimethoxy-N—{(S)-1-[1-(4-methoxy-benzenesulfonyl)-3-oxo-azepan-4-ylcarbamoyl]-3-methyl-butyl}-benzamide]: the inhibition constant (Ki) on Falcipain 2 worked out at 5.9 nM.

With `Cc1oc(-c2ccccc2)nc1C(=O)N[C@H](CC(C)C)C(=O)NC1CCCN(S(=O)(=O)c2cccc[n+]2[O-])CC1=O` (stereo partly drawn) [Example 117, 5-Methyl-2-phenyl-oxazole-4-carboxylic acid {(S)-3-methyl-1-[3-oxo-1-(1-oxy-pyridine-2-sulfonyl)-azepan-4-ylcarbamoyl]-butyl}amide], the Ki on Cruzain was determined as 14 nM; at Falcipain 2, 6.8 nM.

For `COc1cccc2cc(C(=O)N[C@@H](CC(C)C)C(=O)N[C@H]3CCCN(S(=O)(=O)c4ccc(Cl)cc4)CC3=O)oc12` [Example 133, 7-Methoxy-benzofuran-2-carboxylic acid-{(S)-1-[1-(4-chloro-benzenesulfonyl)-3-oxo-azepan-4-ylcarbamoyl]-3-methyl-butyl}-amide], the Ki at Falcipain 2 was 3.4 nM.

In turn, `COc1cccc(S(=O)(=O)N2CCC[C@H](NC(=O)[C@H](CC(C)C)NC(=O)c3cc4cccc(OC)c4o3)C(=O)C2)c1` [Example 138, 7-Methoxy-benzofuran-2-carboxylic acid-{(S)-1-[1-(3-methoxy-benzenesulfonyl)-3-oxo-azepan-4-ylcarbamoyl]-3-methyl-butyl}-amide] came in with a Ki on Falcipain 2 of 5.6 nM.

On Falcipain 2, `O=C(N[C@@H](CC1CCCCC1)C(=O)N[C@H]1CCCN(S(=O)(=O)c2cccc[n+]2[O-])CC1=O)c1ccc(-c2cccc(C(F)(F)F)c2)o1` [Example 169, 5-(3-Trifluoromethyl-phenyl)-furan-2-carboxylic acid {(S)-2-cyclohexyl-1-[3-oxo-1-(1-oxy-pyridine-2-sulfonyl)-azepan-4-ylcarbamoyl]-ethyl}-amide] showed a Ki of 43 nM.

`COc1cccc2oc(C(=O)N[C@@H](CC(C)C)C(=O)NC3CCCN(S(=O)(=O)c4cccc[n+]4[O-])CC3=O)c(C)c12` (stereo partly drawn) [Example 208, 4-Methoxy-3-methyl-benzofuran-2-carboxylic acid {(S)-3-methyl-1-[3-oxo-1-(1-oxy-pyridine-2-sulfonyl)-azepan-4-ylcarbamoyl]-butyl}-amide]: the Ki is 10 nM on Cruzain and 4.2 nM at Rhodazain (read-out: Rhodazain Ki).

On to `COc1cccc2oc(C(=O)N[C@@H](CC(C)C)C(=O)NC3CCCN(S(=O)(=O)c4cccc[n+]4[O-])CC3=O)c(C)c12` (stereo partly drawn) [Example 209, 4-Methoxy-3-methyl-benzofuran-2-carboxylic acid {(S)-3-methyl-1-[3-oxo-1-(1-oxy-pyridine-2-sulfonyl)-azepan-4-ylcarbamoyl]-butyl}-amide], for which the inhibition constant (Ki) was determined as 8.9 nM at Cruzain and 4.1 nM at Rhodazain (read-out: Rhodazain Ki).

Consider `Cc1c(C(=O)N[C@@H](CC(C)C)C(=O)N[C@H]2CCCN(C(=O)Nc3ccccc3F)CC2=O)oc2ccccc12` [Example 216, 3-Methyl-benzofuran-2-carboxylic acid {(S)-1-[1-(2-fluoro-phenylcarbamoyl)-3-oxo-azepan-4-ylcarbamoyl]-3-methyl-butyl}-amide], for which the values for the inhibitory constant (Ki) at Cruzain and at Rhodazain (Rhodazain Ki (nM)) were 6.9 nM and 3.4 nM, respectively.

As to `CC(C)C[C@H](NC(=O)c1cnc2ccccc2n1)C(=O)NC1CCCN(C(=O)Nc2ccccc2F)CC1=O` (stereo partly drawn) [Example 217, Quinoxaline-2-carboxylic acid {(S)-1-[1-(2-fluoro-phenylcarbamol)-3-oxo-azepan-4-ylcarbamoyl]-3-methyl-butyl}-amide], the Ki was 11 nM at Cruzain and 6.7 nM at Rhodazain (Rhodazain Ki (nM)).

As to `CC(C)C[C@H](NC(=O)c1ccc2ccccc2n1)C(=O)N[C@H]1CCCN(C(=O)Nc2ccccc2F)CC1=O` [Example 219, Quinoline-2-carboxylic acid {(S)-1-[1-(2-fluoro-phenylcarbamoyl)-3-oxo-azepan-4-ylcarbamoyl]-3-methyl-butyl}-amide], the Ki came to 8.4 nM on Cruzain and 5.5 nM on Rhodazain (Rhodazain Ki (nM)).
